In patent US20260140118A1, “COMBINATION DRUG” (CHUGAI SEIYAKU KABUSHIKI KAISHA, priority 2022, published 2026):
Where two headings read alike, the source gives them in different places.

Assays:
DTP cells [1] = assay: Cell growth suppression test on DTP cells; assay type: cell-based, human
Description: (§1) Next, for these nine compounds, a cell growth suppression test was conducted, and the ratio of IC50 of DTP cells with respect to the parental line was calculated.

[2] = test system: NCI-H2228 cells (parental cells); assay: Cell growth suppression test on NCI-H2228 parental cells; assay type: cell-based; settings: Homo sapiens
DTP cells [3] = assay: Screening test of anticancer agent library (3114 compounds) for growth suppressive action on DTP cells; assay type: cell-based, human; settings: DTP cells from NCI-H2228 treated with alectinib for 13 days
[4] = test system: NCI-H2228 cells (parental cells); assay: Cell growth suppression test on NCI-H2228 parental cells; assay type: cell-based, human; settings: for IC50: Table 3, nine screening hits; for Sensitivity of NCI-H2228 cells: parental cells
Description: as §1

Regrown cells = assay: Cell growth suppression test on regrown cells; assay type: cell-based, human; settings: DTP cells cultured in alectinib-free medium for 37 days; for IC50: Homo sapiens, Table 4
FGFR1 knockout cells = assay: Cell growth test on FGFR1 knockout cells (CRISPR/Cas9); assay type: cell-based, human; settings: two clones
Text: (§2) Using NEPA21 Electroporation, crRNA and Cas9 protein (Nippon Gene Co., Ltd.) targeting FGFR1 or FGF2 (Fasmac) were introduced into cells, two single clones were isolated from each clone cell with Smart Aliquotor (NT Science, Aichi, Japan), and it was confirmed by the Western blotting analysis that FGFR1 or FGF2 knockout cells lost FGFR1 or FGF2 protein (FIG. 5C).

FGF2 knockout cells = assay: Cell growth test on FGF2 knockout cells (CRISPR/Cas9); assay type: cell-based, human; settings: two clones
Text: as §2

[5] = test system: alectinib-resistant NCI-H2228 cells; assay: Cell growth test on alectinib-resistant NCI-H2228 cells; assay type: cell-based; settings: Homo sapiens
[6] = test system: FGFR1 or FGF2 knockout cells; assay: Caspase-Glo 3/7 apoptosis assay and Western blotting in FGFR1 or FGF2 knockout cells; assay type: cell-based, human
Description: as §2
The FGFR1 or FGF2 knockout cells obtained as described above were seeded on a 384-well plate, and on the following day, a drug was added at an indicated concentration, followed by culturing for an indicated time. The caspase 3 and 7 activity to signal induction of apoptosis in cells was measured using Caspase-Glo 3/7 Assay (Promega) in accordance with the protocol from the manufacturer. […] Each point represents an average+standard deviation from three experiments.

[7] = test system: SNU-2535 cells excessively expressing FGFR1 and FGF2; assay: Cell growth and Western blotting in SNU-2535 cells excessively expressing FGFR1 and FGF2; assay type: cell-based, human; settings: as compared to control cells or cells excessively expressing FGF2
Text: For further confirming that both FGFR1 and FGF2 are necessary for cell survival in ALK inhibitor treatment, FGFR1 and FGF2 were excessively expressed in SNU2535 cells of ALK fusion gene-positive non-small cell lung cancer (NSCLC) (FIG. 7B).
FGFR1, FGF2, or a human coding sequence (CDS) as a control was synthesized, and cloned downstream of an EF1A promoter in a lentivirus vector with VectorBuilder (Chicago, Illinois, USA), and SNU-2535 cells were infected with a lentivirus vector. After 1 day, the culture solution was cultured in a puromycin-containing medium for 4 days, cells excessively expressing FGFR1 and FGF2 were selected, and clones were isolated with Smart Aliquotor. The expression of FGFR1 or FGF2 protein was confirmed by the Western blotting analysis.

DTP cells [8] = settings: Western blotting; STAT3, AKT, ERK, S6, FGFR1
Description: (§3) The cells were seeded on a 6-well plate, and on the following day, a drug was added, followed by culturing for a certain time. A Sally Sue or Jess capillary electrophoresis-based protein analysis system (ProteinSimple, Santa Clara, CA, USA) was charged with protein lysates in equal amounts for each of Western blotting methods. As the antibody, antibodies to ALK, phospho-ALK, FGFR1, FGFR2, FGFR3, FGFR4, ERK, phospho-ERK, AKT, phospho-AKT, EGFR, phospho-EGFR, MET, β-actin, phospho-MET, HER2, CD44, BIM, VIM, CDH1, S6, pS6 and STAT3 (Cell Signaling Technology, Danvers, MA, USA), Cleaved PARP, phospho-HER2, FGF2 and FGF12 (Abcam) were used.

[9] = test system: NCI-H2228 cells (parental cells); settings: Western blotting, STAT3, AKT, ERK, S6
Description: as §3

NCI-H2228 tumor = assay: NCI-H2228 subcutaneous xenograft in nude mice; assay type: in vivo, mouse; settings: oral administration for 11 days
Description: From The Jackson Laboratory Japan, Inc. (Yokohama, Japan), 4 to 5-week-old male BALB/c-nu/nu mice (CAnN Cg-Foxn1/Cr1Cr1j nu/nu) were purchased. Cells were subcutaneously inoculated to the right flank region at 5×10^6 per mouse. The tumor volume and the body weight were measured twice weekly, where the tumor volume was estimated as below. Tumor volume=ab^2/2 (a and b indicate the length and the width of the tumor, respectively. After the establishment of the tumor, the mice were assigned randomly to a solvent administration group, drug administration groups, or a combined administration group identical in dose and schedule to the group receiving each single drug, followed by oral administration for 11 days in a row.

[10] = Table 4, NCI-H2228, read-out: IC50, Parental cells
[11] = Homo sapiens, Table 3, nine screening hits
[12] = NCI-H2228, Example 5, read-out: IC50 value, NCI-H2228 cells, FGFR inhibitor alone
[13] = Homo sapiens, NCI-H2228, NCI-H2228
[14] = NCI-H2228, 192 h, Example 4, treated for 8 days, single or in combination, read-out: IC50, NCI-H2228 Parental cells
[15] = NCI-H2228, FIG. 5D, 5E, read-out: IC50 value, parental cells (comparison to knockout cells)

COc1cc([C@@H]2c3cc4c(cc3[C@H](O)[C@H]3COC(=O)[C@@H]23)OCO4)cc(OC)c1OC [PPP, picropodophyllin]
Cell growth suppressive effects in parental cells and DTP cells compared (DTP cells [1]; FIGS. 1A and B): substantially equivalent
IC50 (DTP cells [1]; Homo sapiens, NCI-H2228, 312 h): 182 nM
IC50 [2, 10]: 152 nM

COc1cc(OC)cc(N(CCNC(C)C)c2ccc3ncc(-c4cnn(C)c4)nc3c2)c1 [Erdafitinib, N^1-(3,5-dimethoxyphenyl)-N^2-(1-methylethyl)-N^1-[3-(1-methyl-1H-pyrazol-4-yl)-6-quinoxalinyl]-1,2-ethanediamine]
Cell growth suppressive effect on DTP cells among the nine compounds (DTP cells [1]; by ratio of IC50): most potent cell growth suppressive effect

c1cc(Nc2cc(C3CC3)[nH]n2)nc(Nc2ccc3nc[nH]c3c2)n1 [APY29]
Anti-proliferative effect on DTP cells (DTP cells [3]): 0.68
IC50 Ratio of parental to DTP cells (DTP cells [1]; Table 3): 3.8
IC50 (DTP cells [1]; Table 3, nine screening hits): 445 nM
IC50 [4]: 1700 nM

CN(C)C/C=C/C(=O)Nc1cc2c(Nc3ccc(F)c(Cl)c3)ncnc2cc1O[C@H]1CCOC1 [Afatinib]
IC50 (DTP cells [1]; [11]): 5020 nM
IC50 Ratio of parental to DTP cells (DTP cells [1]; Table 3): 1.3
IC50 ([4]; Homo sapiens, NCI-H2228): 6430 nM

CN(C)C/C=C/C(=O)Nc1ccc(C(=O)N2CCC[C@@H](Nc3ncc(Cl)c(-c4c[nH]c5ccccc45)n3)C2)cc1 [THZ531]
IC50 (DTP cells [1]; [11]): 154 nM
IC50 Ratio of parental to DTP cells (DTP cells [1]; Table 3): 1.8
IC50 ([4]; Homo sapiens, NCI-H2228): 270 nM

COc1cc(CCc2cc(NC(=O)c3ccc(N4C[C@@H](C)N[C@@H](C)C4)cc3)n[nH]2)cc(OC)c1 [AZD4547, N-(5-(3,5-dimethoxyphenethyl)-1H-pyrazol-3-yl)-4-((3S, 5R)-3,5-dimethylpiperazin-1-yl)benzamide]
IC50 [2, 12]: > 1000 nM

C[C@]12C=CC(=O)C=C1CC[C@H]1[C@@H]3C[C@@H](O)[C@](O)(C(=O)CO)[C@@]3(C)C[C@H](O)[C@@]12F [Triamcinolone]
IC50 (DTP cells [1]; [11]): 1360 nM
IC50 ([4]; Homo sapiens, NCI-H2228): > 10000 nM

CCc1cc2c(cc1N1CCC(N3CCOCC3)CC1)C(C)(C)c1[nH]c3cc(C#N)ccc3c1C2=O.Cl [Alectinib, 9-ethyl-6,6-dimethyl-8-[4-(morpholin-4-yl)-piperidin-1-yl]-11-oxo-6,11-dihydro-5H-benzo[b]carbazole-3-carbonitrile-hydrochloride]
Sensitivity of DTP cells (DTP cells [1]): did not exhibit sensitivity
IC50 (DTP cells [1]; Homo sapiens, NCI-H2228, 312 h): > 1000 nM
Sensitivity of NCI-H2228 cells [4]: exhibited sensitivity
Sensitivity of regrown cells as compared to DTP cells (Regrown cells): recovered sensitivity
IC50 (Regrown cells): 480 nM
IC50 (FGFR1 knockout cells; [13]): 5.4 nM
IC50 (FGFR1 knockout cells; NCI-H2228): 7.3 nM
IC50 (FGF2 knockout cells; [13]): 5.6 nM
IC50 (FGF2 knockout cells; NCI-H2228): 6.1 nM
IC50 [5]: > 1000 nM
Induction of apoptosis (caspase 3 and 7 activity) in FGFR1 or FGF2 knockout cells as compared to parental cells [6]: enhanced
Action of inhibiting ERK in FGFR1 or FGF2 knockout cells as compared to parental cells ([6]; Western blotting): enhanced
Cell growth suppressive effect in cells excessively expressing FGFR1 and FGF2 [7]: decreased
Suppressive effect on the amount of phosphorylation of ERK in cells excessively expressing FGFR1 and FGF2 [7]: decreased
IC50 [2, 14]: 220 nM
IC50 [2, 15]: 220 nM
IC50 [2, 10]: 220 nM

C[C@]12CCC(=O)C=C1CC[C@@H]1[C@@H]2[C@@H](O)C[C@@]2(C)[C@H]1CC[C@]2(O)C(=O)CO [Hydrocortisone]
IC50 (DTP cells [1]; [11]): 2160 nM
IC50 ([4]; Homo sapiens, NCI-H2228): > 10000 nM

Cc1cc([C@@H](C)Nc2ccccc2C(=O)O)c2nc(N3CCOCC3)cc(=O)n2c1 [AZD6482]
IC50 (DTP cells [1]; [11]): 4570 nM
IC50 Ratio of parental to DTP cells (DTP cells [1]; Table 3): 2.2
IC50 ([4]; Homo sapiens, NCI-H2228): 9870 nM

C[C@@H]1C[C@H]2[C@@H]3CCC4=CC(=O)C=C[C@]4(C)[C@@]3(F)[C@@H](O)C[C@]2(C)[C@@]1(O)C(=O)CO [Dexamethasone]
IC50 (DTP cells [1]; [11]): 1320 nM
IC50 ([4]; Homo sapiens, NCI-H2228): > 10000 nM

C=CC(=O)N1CCC(Oc2cc3c(Nc4ccc(Cl)c(Cl)c4F)ncnc3cc2OC)CC1 [Poziotinib]
IC50 (DTP cells [1]; [11]): 1390 nM
IC50 Ratio of parental to DTP cells (DTP cells [1]; Table 3): 2.8
IC50 ([4]; Homo sapiens, NCI-H2228): 3920 nM

C[C@H]1Oc2cc(cnc2N)-c2c(nn(C)c2C#N)CN(C)C(=O)c2ccc(F)cc21 [Lorlatinib, (10R)-7-amino-12-fluoro-2,10,16-trimethyl-15-oxo-10,15,16,17-tetrahydro-2H-4,8-methanepyrazolo[4,3-h][2,5,11]benzoxadiazacyclotetradecine-3-carbonitrile]
IC50 (DTP cells [1]; Homo sapiens, NCI-H2228, 312 h): > 1000 nM
IC50 (FGFR1 knockout cells; [13]): 0.7 nM
IC50 (FGF2 knockout cells; [13]): 0.7 nM
IC50 (FGF2 knockout cells; NCI-H2228): 0.9 nM
IC50 [2, 15]: > 1000 nM
IC50 [2, 10]: 3.8 nM

CCN1CCN(c2ccc(Nc3cc(N(C)C(=O)Nc4c(Cl)c(OC)cc(OC)c4Cl)ncn3)cc2)CC1 [BGJ398, N′-(2,6-dichloro-3,5-dimethoxyphenyl)-N-[6-[[4-(4-ethyl-1-piperazinyl)phenyl]amino]-4-pyrimidinyl]-N-methyl-urea]
Sensitivity of DTP cells (DTP cells [1]): exhibited sensitivity
IC50 (DTP cells [1]; Homo sapiens, NCI-H2228, 312 h): 57.8 nM
Sensitivity of NCI-H2228 cells [4]: did not exhibit sensitivity
Sensitivity of regrown cells as compared to DTP cells (Regrown cells): lost sensitivity
IC50 (Regrown cells): > 1000 nM
IC50 [5]: > 1000 nM
Action of inhibiting the phosphorylation of signal molecules in DTP cells (DTP cells [8]): an action of inhibiting the phosphorylation of FGFR1 and phosphorylation of ERK
Action of inhibiting the phosphorylation of ALK/FGFR1 signal molecules in parental cells [9]: not observed
Tumor growth suppressive effect (NCI-H2228 tumor): did not suppress tumor growth
IC50 [2, 14]: > 1000 nM
IC50 [2, 12]: > 1000 nM
IC50 [2, 10]: > 1000 nM
